Source: patent US5068247A, “2-aminopentanoic acid compounds and their use as immunosuppressants” (priority 1989, dated 1991)
Values after ≈ are worked out from the molar mass of the structure shown.

Legend:
[1] = system: mouse allogenic MLR (BALB/c mouse spleen cells stimulated with C57BL/6 mouse spleen cells); experiment: mouse allogenic mixed lymphocyte reaction (MLR), 3H-thymidine uptake; assay type: cell-based
Procedure: The immunosuppressive activity of the compounds was assayed on the basis of mouse allogenic mixed lymphocyte reaction (hereinafter sometimes abbreviated as MLR). Mouse allogenic MRL was carried out using a mixed culture of BALB/c mouse (H-2^d) spleen cells as the responder cells and mitomycin C-treated C57BL/6 ([…]) mouse spleen cells as the stimulator cells in equal amounts.
The responder cells were prepared as follows:
The spleen was resected from 5- to 6-week-old BALB/c mice, and single cell suspension of spleen cells was prepared by using the RPMI1640 culture medium (containing 60 μg/ml of kanamycin sulfate, 2 mM of L-glutamine, 10 mM of N-2-hydroxyethylpiperazine-N'-2-ethanesulphonate (HEPES) and 0.1% sodium hydrogencarbonate) to which heat-inactivated fetal calf serum (hereinafter sometimes abbreviated as FCS) had been added to 5%. After hemolytic treatment, the cell suspension was adjusted to a concentration of 10^7 cells/ml with the RPMI1640 culture medium supplemented with 10^-4 M 2-mercapto-ethanol and 20% FCS, and was used as the responder cell suspension.
The stimulator cells were prepared as follows: The spleen was resected from 5- to 6-week-old male C57BL/6 mice, and a single cell suspension of spleen cells was prepared by using the RPMI1640 culture medium. After hemolytic treatment, the cells were treated with 40 μg/ml of mitomycin C at 37° C. for 60 minutes. After washing three times, the cell suspension was adjusted to a concentration of 10^7 cells/ml with the RPMI1640 culture medium supplemented with 10^-4 M 2-mercapto-ethanol and 20% FCS, and was used as the stimulator cell suspension.
The blastogenesis of lymphocytes was assayed using ^3 H-thymidine uptake as an index. That is, after termination of culture, 18.5 KBq/well of ^3 H-thymidine was added thereto and the suspension was cultured for 4 hours. Cells were harvested by a cell-harvester, and the radioactivity incorporated into the cells was determined by a liquid scintillation counter, which was used as an index of blastogenesis of lymphocytes in the mouse allogenic MLR. The suppression of the mouse allogenic MLR was evaluated by calculating the percent suppression by the following formula.
The test substance dissolved in methanol was diluted with the RPMI1640 culture medium and put to use.

CTLL-2 cells = experiment: suppression of proliferation of IL-2-dependent mouse cell line CTLL-2 induced by IL-2; assay type: cell-based; conditions: IL-2 50 U/ml, Table 6A
Procedure: IL-2-dependent mouse cell line CTLL-2 cells were suspended in the RPMI1640 culture medium supplemented with 30% FCS to the concentration of 4×10^5 cells/ml. Fifty μl of the cell suspension, 50 μl of 200 U/ml recombinant human IL-2 (rhIL-2) and 100 μl of the test substance were added to a 96-well flat-bottomed microtest plate. […] The percent suppression (%) was calculated by the following formula. [formula]

CCCCCCC(O)C=CCCCCC=CCC(O)C(O)C(N)(CO)C(=O)O (stereo not shown) [Example 1]
3H-thymidine uptake ([1]; 0.0001 μg/ml, Table 1A): 17985 cpm | 3H-thymidine uptake ([1]; 0.001 μg/ml, Table 1A): 13566 cpm | 3H-thymidine uptake ([1]; 0.01 μg/ml, Table 1A): 11016 cpm | 3H-thymidine uptake ([1]; 0.1 μg/ml, Table 1A): 1020 cpm | 3H-thymidine uptake ([1]; 1 μg/ml, Table 1A): 919 cpm | inhibition at 0.0001 µg/mL ([1]; Mus musculus, Lymphocyte, 0.0001 μg/ml, Table 1A, read-out: Suppression): 2.7% | inhibition at 0.001 µg/mL ([1]; Mus musculus, Lymphocyte, 0.001 μg/ml, Table 1A, read-out: Suppression): 29% | inhibition at 0.01 µg/mL ([1]; Mus musculus, Lymphocyte, 0.01 μg/ml, Table 1A, read-out: Suppression): 44.1% | inhibition at 0.1 µg/mL ([1]; Mus musculus, Lymphocyte, 0.1 μg/ml, Table 1A, read-out: Suppression): 100% | inhibition at 1 µg/mL ([1]; Mus musculus, Lymphocyte, 1 μg/ml, Table 1A, read-out: Suppression): 100% | IC50 ([1]; Mus musculus, Lymphocyte, read-out: 50%-inhibition concentration (IC50) in mouse allogenic MLR): 0.013 µg/mL (≈ 0.0324 µM) | optical density (OD570) (CTLL-2 cells; 0.001 μg/ml): 0.508 | optical density (OD570) (CTLL-2 cells; 0.01 μg/ml): 0.556 | optical density (OD570) (CTLL-2 cells; 0.1 μg/ml): 0.009 | optical density (OD570) (CTLL-2 cells; 1 μg/ml): 0.005 | inhibition at 0.001 µg/mL (CTLL-2 cells; Mus musculus, CTLL-2, 68 h, 0.001 μg/ml, read-out: Suppression): 13.3% | inhibition at 0.01 µg/mL (CTLL-2 cells; Mus musculus, CTLL-2, 68 h, 0.01 μg/ml, read-out: Suppression): 5.1% | inhibition at 0.1 µg/mL (CTLL-2 cells; Mus musculus, CTLL-2, 68 h, 0.1 μg/ml, read-out: Suppression): 98.6% | inhibition at 1 µg/mL (CTLL-2 cells; Mus musculus, CTLL-2, 68 h, 1 μg/ml, read-out: Suppression): 99.3%
